Drawing on patent publication US7247634B2, “Rifamycin derivatives effective against drug-resistant microbes” (Cumbre Pharmaceuticals Inc., priority 2004, dated 2007), this text covers MIC for four molecules.

Values after ≈ are worked out from the molar mass of the structure shown.

Common to all, as to assay type: cell-based
In experiment [1] the test system is Mycobacterium smegmatis ATCC700084. The experiment can be described thus: MIC, microbroth dilution (NCCLS). As to conditions: Mycolicibacterium smegmatis, rifS strain, Middlebrook Broth plus ADC Enrichment, 37° C., read-out: Antimicrobial activity (MIC). (Broth dilution looks for growth in wells or tubes with falling amounts of substance.)
Experiment [2] concerns Streptococcus pyogenes ATCC19615. The experiment can be described thus: MIC, microbroth dilution (NCCLS). As to conditions: rifS strain, THY Broth, 37° C., read-out: Antimicrobial activity (MIC).
In experiment [3] the test system is Staphylococcus aureus ATCC29213 rpoB^H418Y. The experiment can be described thus: microbe, parasite or virus in culture. The conditions noted are these: ATCC29213, read-out: Antimicrobial activity (MIC). Here is the method: (§1) Representative compounds were assayed for antimicrobial activity as follows: Minimum Inhibitory Concentrations (“MICs”) were determined by the microbroth dilution method as per NCCLS guidelines (National Committee for Clinical Laboratory Standards. 2000. Methods for dilution antimicrobial susceptibility tests for bacteria that grow aerobically, 5th ed. M7-A5. National Committee for Clinical Laboratory Standards, Wayne, Pa.), except that all growth incubations were conducted at 37° C. Bacterial cultures were tested in the following bacteriological media: S. aureus, S. epidermidis, and E. coli in Cation-Adjusted Mueller-Hinton Broth, S. pneumoniae in THY Broth supplemented with 1 mg/mL catalase under 5% CO2 atmosphere, S. pyogenes in THY Broth, E. faecalis in BHI Broth, H. influenzae in BHI Broth supplemented with 0.75 μL of 1 mg/mL NAD and 150 μL of 1 mg/ml hematin per 5 mL, and M. smegmatis in Middlebrook Broth plus ADC Enrichment.
(§2) S. aureus ATCC 29213 RpoB^H418Y is a rifampin-resistant strain with a mutation in RNA polymerase, the biological target of rifamycin antibiotics. […] S. aureus EN1252a gyrA^S84L grlA^S80F is a quinolone-resistant strain due to double mutations to DNA gyrase and topoisomerase IV, the two biological targets for quinolone antibiotics.

For experiment [4], the system named is Staphylococcus aureus EN1252a gyrA^S84L grlA^S80F. The experiment can be described thus: microbe, parasite or virus in culture. As to conditions: read-out: Antimicrobial activity (MIC). Here is the method:
as §1, §2

For experiment [5], the system named is Staphylococcus aureus ATCC29213 rpoB^D417Y. The experiment can be described thus: microbe, parasite or virus in culture. The conditions noted are these: ATCC29213, read-out: Antimicrobial activity (MIC). As for the experimental part:
as §1, §2

Experiment [6] has as its system Escherichia coli ATCC25922. The experiment can be described thus: MIC, microbroth dilution (NCCLS). The conditions noted are these: rifS strain, Cation-Adjusted Mueller-Hinton Broth, 37° C., read-out: Antimicrobial activity (MIC).
Experiment [7] deals with Streptococcus pneumoniae ATCC6303. The experiment can be described thus: MIC, microbroth dilution (NCCLS). The conditions noted are these: rifS strain, THY Broth with 1 mg/mL catalase, 5% CO2, 37° C., read-out: Antimicrobial activity (MIC).
Experiment [8] deals with Haemophilus influenzae ATCC10211. The experiment can be described thus: MIC, microbroth dilution (NCCLS). As to conditions: rifS strain, BHI Broth with NAD and hematin, 37° C., read-out: Antimicrobial activity (MIC).
Experiment [9] has as its system Enterococcus faecalis ATCC29212. The experiment can be described thus: MIC, microbroth dilution (NCCLS). The conditions noted are these: rifS strain, BHI Broth, 37° C., read-out: Antimicrobial activity (MIC).
Experiment [10] has as its system Staphylococcus epidermidis ATCC12228. The experiment can be described thus: MIC, microbroth dilution (NCCLS). The conditions noted are these: rifS strain, Cation-Adjusted Mueller-Hinton Broth, 37° C., read-out: Antimicrobial activity (MIC).
The test system of experiment [11] is Staphylococcus aureus ATCC29213. The experiment can be described thus: MIC, microbroth dilution (NCCLS). The conditions noted are these: rifS strain, Cation-Adjusted Mueller-Hinton Broth, 37° C., read-out: Antimicrobial activity (MIC).

With `CO[C@H]1/C=C/O[C@@]2(C)Oc3c(C)c(O)c4c(c3C2=O)C(=O)C(N2CC(C(=O)NC3CCN(c5c(F)cc6c(=O)c(C(=O)O)cn(C7CC7)c6c5Cl)C3)C2)=C(NC(=O)/C(C)=C\C=C\[C@H](C)[C@H](O)[C@@H](C)[C@@H](O)[C@@H](C)[C@H](OC(C)=O)[C@@H]1C)C4=O` (mixture of isomers) [Example 43, (R/S)-3-{3-[1-(3-Carboxy-8-chloro-1-cyclopropyl-6-fluoro-4-oxo-1,4-dihydroquinolin-7-yl)-pyrrolidin-3-ylcarbamoyl]-azetidin-1-yl}rifamycin S], the MIC was 0.5 to 64 µg/mL in experiment [1]; 0.008 to 0.063 µg/mL (≈ 0.007 to 0.0551 µM) in [2]; 0.06 to 16 µg/mL (≈ 0.0525 to 14 µM) in experiment [3]; 0.004 to 0.5 µg/mL (≈ 0.0035 to 0.438 µM) in experiment [4]; 0.06 to 32 µg/mL (≈ 0.0525 to 28 µM) in [5]; 0.125 to 8 µg/mL (≈ 0.109 to 7 µM) in experiment [6]. The MIC in experiment [7] was 0.008 to 0.125 µg/mL (≈ 0.007 to 0.109 µM); in experiment [8] it was 0.125 to 2 µg/mL (≈ 0.109 to 1.75 µM); in [9], 2 to 32 µg/mL (≈ 1.75 to 28 µM); in [10], 0.008 to 0.063 µg/mL (≈ 0.007 to 0.0551 µM); in experiment [11], 0.004 to 0.5 µg/mL (≈ 0.0035 to 0.438 µM).

Consider `COc1c(N2CCC(NC(=O)C3CN(C4=C5NC(=O)/C(C)=C\C=C\[C@H](C)[C@H](O)[C@@H](C)[C@@H](O)[C@@H](C)[C@H](OC(C)=O)[C@H](C)[C@@H](OC)/C=C/O[C@@]6(C)Oc7c(C)c(O)c(c(c7C6=O)C4=O)C5=O)C3)C2)c(F)cc2c(=O)c(C(=O)O)cn(C3CC3)c12` (mixture of isomers) [Example 44, (R/S)-3-{3-[1-(3-Carboxy-1-cyclopropyl-6-fluoro-8-methoxy-4-oxo-1,4-dihydroquinolin-7-yl)-pyrrolidin-3-ylcarbamoyl]-azetidin-1-yl}rifamycin S], for which the MIC lay in the range of 0.5 to 64 µg/mL in experiment [1]; 0.008 to 0.063 µg/mL (≈ 0.00703 to 0.0554 µM) in experiment [2]; 0.06 to 16 µg/mL (≈ 0.0527 to 14.1 µM) in experiment [3]; 0.004 to 0.5 µg/mL (≈ 0.00351 to 0.439 µM) in experiment [4]; 0.06 to 32 µg/mL (≈ 0.0527 to 28.1 µM) in [5]; 0.125 to 8 µg/mL (≈ 0.11 to 7.03 µM) in experiment [6]. In addition, the MIC in [7] is 0.008 to 0.125 µg/mL (≈ 0.00703 to 0.11 µM); in [8], 0.125 to 2 µg/mL (≈ 0.11 to 1.76 µM); in experiment [9] it was 2 to 32 µg/mL (≈ 1.76 to 28.1 µM); in experiment [10] it was 0.008 to 0.063 µg/mL (≈ 0.00703 to 0.0554 µM); in [11], 0.004 to 0.5 µg/mL (≈ 0.00351 to 0.439 µM).

Regarding `CO[C@H]1/C=C/O[C@@]2(C)Oc3c(C)c(O)c4c(c3C2=O)C(=O)C(N2CCC(C(=O)NC3CCN(c5c(F)cc6c(=O)c(C(=O)O)cn(C7CC7)c6c5Cl)C3)CC2)=C(NC(=O)/C(C)=C\C=C\[C@H](C)[C@H](O)[C@@H](C)[C@@H](O)[C@@H](C)[C@H](OC(C)=O)[C@@H]1C)C4=O` (mixture of isomers) [Example 49, (R/S)-3-{4-[1-(3-Carboxy-8-chloro-1-cyclopropyl-6-fluoro-4-oxo-1,4-dihydroquinolin-7-yl)-pyrrolidin-3-ylcarbamoyl]-piperidin-1-yl}rifamycin S], the MIC was 0.5 to 64 µg/mL in experiment [1]; 0.008 to 0.063 µg/mL (≈ 0.00683 to 0.0538 µM) in experiment [2]; 0.06 to 16 µg/mL (≈ 0.0513 to 13.7 µM) in experiment [3]; 0.004 to 0.5 µg/mL (≈ 0.00342 to 0.427 µM) in [4]; 0.06 to 32 µg/mL (≈ 0.0513 to 27.3 µM) in experiment [5]; 0.125 to 8 µg/mL (≈ 0.107 to 6.83 µM) in [6]. Besides, the MIC in experiment [7] fell in the range of 0.008 to 0.125 µg/mL (≈ 0.00683 to 0.107 µM); in [8], 0.125 to 2 µg/mL (≈ 0.107 to 1.71 µM); in [9], 2 to 32 µg/mL (≈ 1.71 to 27.3 µM); in experiment [10] it was 0.008 to 0.063 µg/mL (≈ 0.00683 to 0.0538 µM); in [11], 0.004 to 0.5 µg/mL (≈ 0.00342 to 0.427 µM).

For `COc1c(N2CCC(NC(=O)C3CCN(C4=C5NC(=O)/C(C)=C\C=C\[C@H](C)[C@H](O)[C@@H](C)[C@@H](O)[C@@H](C)[C@H](OC(C)=O)[C@H](C)[C@@H](OC)/C=C/O[C@@]6(C)Oc7c(C)c(O)c(c(c7C6=O)C4=O)C5=O)CC3)C2)c(F)cc2c(=O)c(C(=O)O)cn(C3CC3)c12` (mixture of isomers) [Example 50, (R/S)-3-{4-[1-(3-Carboxy-1-cyclopropyl-6-fluoro-8-methoxy-4-oxo-1,4-dihydroquinolin-7-yl)-pyrrolidin-3-ylcarbamoyl]-piperidin-1-yl}rifamycin S], the MIC in experiment [1] fell in the range of 0.5 to 64 µg/mL; in experiment [2], 0.008 to 0.063 µg/mL (≈ 0.00686 to 0.054 µM); in experiment [3], 0.06 to 16 µg/mL (≈ 0.0514 to 13.7 µM); in experiment [4], 0.004 to 0.5 µg/mL (≈ 0.00343 to 0.429 µM); in experiment [5], 0.06 to 32 µg/mL (≈ 0.0514 to 27.4 µM); in [6] it was 0.125 to 8 µg/mL (≈ 0.107 to 6.86 µM). Also, the MIC in experiment [7] lay in the range of 0.008 to 0.125 µg/mL (≈ 0.00686 to 0.107 µM); in [8], 0.125 to 2 µg/mL (≈ 0.107 to 1.71 µM); in experiment [9] it was 2 to 32 µg/mL (≈ 1.71 to 27.4 µM); in experiment [10] it was 0.008 to 0.063 µg/mL (≈ 0.00686 to 0.054 µM); in [11], 0.004 to 0.5 µg/mL (≈ 0.00343 to 0.429 µM).
